Experimental data reported in PubChem BioAssay AID184 (DTP/NCI, 2004).
Values joined by “and” are separate entries in the source; they are usually repeats but may differ in a detail not shown here. Equal values may be shown once. Inconclusive results and toxic doses are left out.

System: BALB/cJ mice, ADJ-PC-6 ip tumor, median survival T/C
Test: NCI In Vivo Anticancer Drug Screen. Data for tumor model ADJ-PC-6 (intraperitoneal) in BALB/cJ mice
Details: endpoint: median survival time, higher = longer survival
Procedure: The antitumor activity of compounds was measured in mice bearing transplantable tumors. Survival or tumor size were measured and the results are expressed as the measurement made in the treated group (T) divided by the measurement made in the vehicle treated control group (C). The tumor model used in this assay is ADJ-PC-6 (intraperitoneal) in BALB/cJ mice

[1] = dose: 10.0 mg/kg/injection, schedule: Q04DX003 (ip), vehicle: saline
[2] = dose: 20.0 mg/kg/injection, schedule: Q04DX003 (ip), vehicle: saline
[3] = dose: 40.0 mg/kg/injection, schedule: Q04DX003 (ip), vehicle: saline

SMILES: CC1OC(=O)C(C(C)C)NC(=O)C(C(C)C)OC(=O)C(C(C)C)NC(=O)C(C)OC(=O)C(C(C)C)NC(=O)C(C(C)C)OC(=O)C(C(C)C)NC(=O)C(C)OC(=O)C(C(C)C)NC(=O)C(C(C)C)OC(=O)C(C(C)C)NC1=O (stereo not given)
- T/C (dose: 0.75 mg/kg/injection, schedule: Q04DX003 (ip), vehicle: Klucel (hydroxypropylcellulose) (HPC)): 87 % of control
- T/C (dose: 1.5 mg/kg/injection, schedule: Q04DX003 (ip), vehicle: Klucel (hydroxypropylcellulose) (HPC)): 102 % of control
- T/C (dose: 2.0 mg/kg/injection, schedule: Q01DX009 (ip), vehicle: Klucel (hydroxypropylcellulose) (HPC)): 100 % of control
- T/C (dose: 4.0 mg/kg/injection, schedule: Q01DX009 (ip), vehicle: Klucel (hydroxypropylcellulose) (HPC)): 104 % of control
- T/C (dose: 8.0 mg/kg/injection, schedule: Q01DX009 (ip), vehicle: Klucel (hydroxypropylcellulose) (HPC)): 185 % of control

SMILES: O=C(O)CCCc1ccc(N(CCCl)CCCl)cc1
- T/C (dose: 1.25 mg/kg/injection, schedule: Q04DX003 (ip), vehicle: saline with Tween-80): 106 % of control
- T/C (dose: 2.0 mg/kg/injection, schedule: Q04DX003 (ip), vehicle: saline with Tween-80): 102 % of control
- T/C (dose: 2.5 mg/kg/injection, schedule: Q04DX003 (ip), vehicle: saline with Tween-80): 105 % of control
- T/C (dose: 4.0 mg/kg/injection, schedule: Q04DX003 (ip), vehicle: saline with Tween-80): 102 % of control
- T/C (dose: 5.0 mg/kg/injection, schedule: Q04DX003 (ip), vehicle: saline with Tween-80): 105 % of control
- T/C (dose: 8.0 mg/kg/injection, schedule: Q04DX003 (ip), vehicle: saline with Tween-80): 122 % of control
- T/C (dose: 16.0 mg/kg/injection, schedule: Q04DX003 (ip), vehicle: saline with Tween-80): 173 % of control
- T/C (dose: 20.0 mg/kg/injection, schedule: Q04DX003 (ip), vehicle: saline with Tween-80): 260 % of control
- T/C (dose: 32.0 mg/kg/injection, schedule: Q04DX003 (ip), vehicle: saline with Tween-80): 189 % of control

SMILES: Nc1nc(=S)c2[nH]cnc2[nH]1
- T/C (dose: 0.5 mg/kg/injection, schedule: Q01DX009 (ip), vehicle: alkali diluted with saline): 194 % of control and 239 % of control
- T/C (dose: 1.0 mg/kg/injection, schedule: Q01DX009 (ip), vehicle: alkali diluted with saline): 194 % of control and 267 % of control
- T/C (dose: 2.0 mg/kg/injection, schedule: Q01DX009 (ip), vehicle: alkali diluted with saline): 194 % of control and 267 % of control
- T/C (dose: 4.0 mg/kg/injection, schedule: Q01DX009 (ip), vehicle: alkali diluted with saline): 194 % of control

SMILES: CC[C@](O)(C(=O)O)c1cc2n(c(=O)c1CO)Cc1cc3ccccc3nc1-2
- T/C (dose: 3.75 mg/kg/injection, schedule: Q04DX003 (ip), vehicle: saline): 111 % of control
- T/C (dose: 7.5 mg/kg/injection, schedule: Q04DX003 (ip), vehicle: saline): 120 % of control
- T/C [1]: 158 % of control
- T/C (dose: 15.0 mg/kg/injection, schedule: Q04DX003 (ip), vehicle: saline): 115 % of control
- T/C [2]: 185 % of control
- T/C (dose: 30.0 mg/kg/injection, schedule: Q04DX003 (ip), vehicle: saline): 158 % of control
- T/C [3]: 174 % of control
- T/C (dose: 60.0 mg/kg/injection, schedule: Q04DX003 (ip), vehicle: saline): 188 % of control
- T/C (dose: 80.0 mg/kg/injection, schedule: Q04DX003 (ip), vehicle: saline): 196 % of control

SMILES: CC[C@]1(O)C[C@H]2CN(CCc3c([nH]c4ccccc34)[C@@](C(=O)OC)(c3cc4c(cc3OC)N(C=O)[C@H]3[C@@](O)(C(=O)OC)[C@H](OC(C)=O)[C@]5(CC)C=CCN6CC[C@]43[C@@H]65)C2)C1
- T/C (dose: 0.13 mg/kg/injection, schedule: Q04DX003 (ip), vehicle: saline): 99 % of control and 110 % of control
- T/C (dose: 0.25 mg/kg/injection, schedule: Q04DX003 (ip), vehicle: saline): 101 % of control and 110 % of control
- T/C (dose: 0.5 mg/kg/injection, schedule: Q04DX003 (ip), vehicle: saline): 97 % of control and 102 % of control
- T/C (dose: 1.0 mg/kg/injection, schedule: Q04DX003 (ip), vehicle: saline): 106 % of control and 121 % of control
- T/C (dose: 2.0 mg/kg/injection, schedule: Q04DX003 (ip), vehicle: saline): 122 % of control

SMILES: CC(=O)N(C)c1ccc(Nc2cc(C)[nH]c3ccc4ncnc4c23)cc1
- T/C [1]: 100 % of control
- T/C [2]: 162 % of control
- T/C [3]: 107 % of control
